Test system: C57BL/6 mice
Experiment: animal or person
Assay type: in vivo
Settings: Mus musculus, sc, 0.5 h, s.c. administration, 30 min, 55° C. water, read-out: ED50 (mg/kg) at 30 min on C57BL/6 mice in Warm-water Tail-flick Test

In the case of `CC(=O)Nc1ccc(CN2CCC(CCc3ccccc3)(C3CCCCO3)C2)cc1` (stereo not shown) [Compound 208, N-(4-((3-phenethyl-3-(tetrahydro-2H-pyran-2-yl)pyrrolidin-1-yl)methyl)phenyl)acetamide], the ED50 is reported as under 10 mg/kg.
`c1ccc(CCC2(C3CCCCO3)CCN(Cc3ccccc3-c3cccs3)C2)cc1` (stereo not shown) [Compound 209, 3-phenethyl-3-(tetrahydro-2H-pyran-2-yl)-1-(2-(thiophen-2-yl)benzyl)pyrrolidine] showed an ED50 of over 10 mg/kg.
With `Clc1ccccc1CN1CCC(CCc2ccccc2)(C2CCCCO2)C1` (stereo not shown) [Compound 210, 1-(2-chlorobenzyl)-3-phenethyl-3-(tetrahydro-2H-pyran-2-yl)pyrrolidine] the ED50 was over 10 mg/kg.
Work on `Cc1nc(CN2CCC(CCc3ccccc3)(C3CCCCO3)C2)cs1` (stereo not shown) [Compound 211, 2-methyl-4-((3-phenethyl-3-(tetrahydro-2H-pyran-2-yl)pyrrolidin-1-yl)methyl)thiazole] yielded an ED50 of over 10 mg/kg.
`c1ccc(CCC2(C3CCCO3)CCN(Cc3cn[nH]c3)C2)cc1` (stereo not shown) [Compound 212, 4-((3-phenethyl-3-(tetrahydrofuran-2-yl)pyrrolidin-1-yl)methyl)-1H-pyrazole] showed an ED50 of over 10 mg/kg.
For `Cn1ccc(CN2CCC(CCc3ccccc3)(C3CCCO3)C2)n1` (stereo not shown) [Compound 214, 1-methyl-3-((3-phenethyl-3-(tetrahydrofuran-2-yl)pyrrolidin-1-yl)methyl)-1H-pyrazole], the ED50 was over 10 mg/kg.
`Cn1nccc1CN1CCC(CCc2ccccc2)(C2CCCO2)C1` (stereo not drawn) [Compound 215, l-methyl-5-((3-phenethyl-3-(tetrahydrofuran-2-yl)pyrrolidin-1-yl)methyl)-1H-pyrazole] was tested, and the ED50 was under 10 mg/kg.
`CC(=O)Nc1ccc(CN2CCC(CCc3ccccc3)(C3OCC=C3C)C2)cc1` (stereo not shown) [Compound 216, N-(4-((3-(3-methyl-2,5-dihydrofuran-2-yl)-3-phenethylpyrrolidin-1-yl)methyl)phenyl)acetamide] gave an ED50 of under 10 mg/kg.
With `CCOCC1(CCc2ccccc2)CCN(Cc2cnn(C)c2)C1` (stereo not shown) [Compound 217, 4-((3-(ethoxymethyl)-3-phenethylpyrrolidin-1-yl)methyl)-1-methyl-1H-pyrazole] the ED50 was under 10 mg/kg.
In the case of `c1ccc(CCC2(C3CCCO3)CCN(Cc3cccc(-c4ccco4)c3)C2)cc1` (stereo not shown) [Compound 219], the ED50 is reported as over 10 mg/kg.
`c1ccc(CCC2(C3CCCO3)CCN(Cc3ccc(-c4ccco4)cc3)C2)cc1` (stereo not shown) [Compound 220] gave an ED50 of over 10 mg/kg.
`Cn1cncc1CN1CCC(CCc2ccccc2)(C2CCCO2)C1` (stereo not shown) [Compound 221, 1-methyl-5-((3-phenethyl-3-(tetrahydrofuran-2-yl)pyrrolidin-1-yl)methyl)-1H-imidazole] gave an ED50 of over 10 mg/kg.
`Cn1ccnc1CN1CCC(CCc2ccccc2)(C2CCCO2)C1` (stereo not drawn) [Compound 222, l-methyl-2-((3-phenethyl-3-(tetrahydrofuran-2-yl)pyrrolidin-1-yl)methyl)-1H-imidazole] showed an ED50 of over 10 mg/kg.
`COc1ccsc1CN1CCC(CCc2ccccc2)(C2CCCO2)C1` (stereo not shown) [Compound 223, 1-((3-methoxythiophen-2-yl)methyl)-3-phenethyl-3-(tetrahydrofuran-2-yl)pyrrolidine] gave an ED50 of over 10 mg/kg.
`Cn1ccc(CN2CCC(CCc3ccccc3)(C3CCCO3)C2)c1` (stereo not shown) [Compound 224, 1-methyl-3-((3-phenethyl-3-(tetrahydrofuran-2-yl)pyrrolidin-1-yl)methyl)-1H-pyrrole] gave an ED50 of over 10 mg/kg.
`c1ccc(CCC2(C3CCCO3)CCN(Cc3ccccn3)C2)cc1` (stereo not shown) [Compound 225, 2-((3-phenethyl-3-(tetrahydrofuran-2-yl)pyrrolidin-1-yl)methyl)pyridine] gave an ED50 of over 10 mg/kg.
`c1ccc(CCC2(C3CCCO3)CCN(Cc3cccnc3)C2)cc1` (stereo not shown) [Compound 226, 3-((3-phenethyl-3-(tetrahydrofuran-2-yl)pyrrolidin-1-yl)methyl)pyridine] gave an ED50 of under 10 mg/kg.
Compound `Cn1cccc1CN1CCC(CCc2ccccc2)(C2CCCO2)C1` (stereo not shown) [Compound 227, 1-methyl-2-((3-phenethyl-3-(tetrahydrofuran-2-yl)pyrrolidin-1-yl)methyl)-1H-pyrrole] has an ED50 of over 10 mg/kg.
`c1ccc(CCC2(C3CCCO3)CCN(Cc3ccnn3-c3ccccc3)C2)cc1` (stereo not shown) [Compound 228, 5-((3-phenethyl-3-(tetrahydrofuran-2-yl)pyrrolidin-1-yl)methyl)-1-phenyl-1H-pyrazole] gave an ED50 of over 10 mg/kg.
`c1ccc(CCC2(C3CCCO3)CCN(CC3CCCO3)C2)cc1` (stereo not shown) [Compound 229, 3-phenethyl-3-(tetrahydrofuran-2-yl)-1-((tetrahydrofuran-2-yl)methyl)pyrrolidine] showed an ED50 of over 10 mg/kg.
`c1ccc(CCC2(C3CCCO3)CCN(CC3CCOC3)C2)cc1` (stereo not shown) [Compound 230, 3-phenethyl-3-(tetrahydrofuran-2-yl)-1-((tetrahydrofuran-3-yl)methyl)pyrrolidine] was tested, and the ED50 was over 10 mg/kg.
Work on `Cc1ncc(CN2CCC(CCc3ccccc3)(C3CCCO3)C2)s1` (stereo not shown) [Compound 231, 2-methyl-5-((3-phenethyl-3-(tetrahydrofuran-2-yl)pyrrolidin-1-yl)methyl)thiazole] yielded an ED50 of under 10 mg/kg.
`CCOCC1(CCc2ccsc2)CCN(Cc2cnn(C)c2)CC1` [Compound 232, 4-(ethoxymethyl)-1-((1-methyl-1H-pyrazol-4-yl)methyl)-4-(2-(thiophen-3-yl)ethyl)piperidine] gave an ED50 of under 10 mg/kg.
For `CCOCC1(CCc2cccs2)CCN(Cc2cnn(C)c2)CC1` [Compound 233, 4-(ethoxymethyl)-1-((1-methyl-1H-pyrazol-4-yl)methyl)-4-(2-(thiophen-2-yl)ethyl)piperidine], the ED50 was under 10 mg/kg.
In the case of `CCOC[C@]1(CCc2ccccc2)CCN(Cc2cnn(C)c2)C1` [Compound 234, (R)-4-((3-(ethoxymethyl)-3-phenethylpyrrolidin-1-yl)methyl)-1-methyl-1H-pyrazole], the ED50 is reported as over 10 mg/kg.
In the case of `CCOC[C@@]1(CCc2ccccc2)CCN(Cc2cnn(C)c2)C1` [Compound 235, (S)-4-((3-(ethoxymethyl)-3-phenethylpyrrolidin-1-yl)methyl)-1-methyl-1H-pyrazole], the ED50 is reported as under 10 mg/kg.
Work on `c1ccc(CCC2(C3CCCO3)CCN(Cc3ccncc3)C2)cc1` (stereo not shown) [Compound 236, 4-((3-phenethyl-3-(tetrahydrofuran-2-yl)pyrrolidin-1-yl)methyl)pyridine] yielded an ED50 of over 10 mg/kg.
`c1ccc(CCC2(C3CCCO3)CCN(Cc3cncnc3)C2)cc1` (stereo not shown) [Compound 237, 5-((3-phenethyl-3-(tetrahydrofuran-2-yl)pyrrolidin-1-yl)methyl)pyrimidine] showed an ED50 of over 10 mg/kg.
For `c1ccc(CCC2(C3CCCO3)CCN(Cc3cnccn3)C2)cc1` (stereo not shown) [Compound 238, 2-((3-phenethyl-3-(tetrahydrofuran-2-yl)pyrrolidin-1-yl)methyl)pyrazine], the ED50 was over 10 mg/kg.
In the case of `CC(=O)Nc1ccc(CN2CCC(CCc3ccccc3)(COCc3ccccc3)C2)cc1` (stereo not shown) [Compound 239, N-(4-((3-(benzyloxymethyl)-3-phenethylpyrrolidin-1-yl)methyl)phenyl)acetamide], the ED50 is reported as over 10 mg/kg.
`Cn1cc(CN2CCC(CCc3ccccc3)(COCc3ccccc3)C2)cn1` (stereo not shown) [Compound 240, 4-((3-(benzyloxymethyl)-3-phenethylpyrrolidin-1-yl)methyl)-1-methyl-1H-pyrazole] was tested, and the ED50 was over 10 mg/kg.
`Fc1cncc(CN2CCC(CCc3ccccc3)(C3CCCO3)C2)c1` (stereo not shown) [Compound 241, 3-fluoro-5-((3-phenethyl-3-(tetrahydrofuran-2-yl)pyrrolidin-1-yl)methyl)pyridine] gave an ED50 of over 10 mg/kg.
`COc1cncc(CN2CCC(CCc3ccccc3)(C3CCCO3)C2)c1` (stereo not shown) [Compound 242, 3-methoxy-5-((3-phenethyl-3-(tetrahydrofuran-2-yl)pyrrolidin-1-yl)methyl)pyridine] showed an ED50 of over 10 mg/kg.
`Clc1cncc(CN2CCC(CCc3ccccc3)(C3CCCO3)C2)c1` (stereo not shown) [Compound 243, 3-chloro-5-((3-phenethyl-3-(tetrahydrofuran-2-yl)pyrrolidin-1-yl)methyl)pyridine] was tested, and the ED50 was over 10 mg/kg.
Compound `CCOCC1(CCc2ccccc2)CCN(Cc2cccnc2)CC1` [Compound 244, 3-((4-(ethoxymethyl)-4-phenethylpiperidin-1-yl)methyl)pyridine] has an ED50 of under 10 mg/kg.
`CCOCC1(CCc2ccccc2)CCN(Cc2cnn(C)c2)CC1` [Compound 245, 4-(ethoxymethyl)-1-((1-methyl-1H-pyrazol-4-yl)methyl)-4-phenethylpiperidine] gave an ED50 of under 10 mg/kg.
`CCOCC1(CCc2ccccc2)CCN(Cc2ccnn2C)CC1` [Compound 246, 4-(ethoxymethyl)-1-((1-methyl-1H-pyrazol-5-yl)methyl)-4-phenethylpiperidine] gave an ED50 of over 10 mg/kg.
For `CCOCC1(CCc2cccs2)CCN(Cc2cccnc2)CC1` [Compound 247, 3-((4-(ethoxymethyl)-4-(2-(thiophen-2-yl)ethyl)piperidin-1-yl)methyl)pyridine], the ED50 was under 10 mg/kg.
`c1ccc(CCC2(C3CCCO3)CCN(CCc3cccnc3)C2)cc1` (stereo not shown) [Compound 248, 3-(2-(3-phenethyl-3-(tetrahydrofuran-2-yl)pyrrolidin-1-yl)ethyl)pyridine] showed an ED50 of over 10 mg/kg.
Compound `CCOCC1(CCc2ccccc2)CCN(Cc2cccnc2)C1` (stereo not shown) [Compound 249, 3-((3-(ethoxymethyl)-3-phenethylpyrrolidin-1-yl)methyl)pyridine] has an ED50 of under 10 mg/kg.
In the case of `CCOCC1(CCc2ccsc2)CCN(Cc2cnn(C)c2)C1` (stereo not drawn) [Compound 250, 4-((3-(ethoxymethyl)-3-(2-(thiophen-3-yl)ethyl)pyrrolidin-l-yl)methyl)-1-methyl-1H-pyrazole], the ED50 is reported as under 10 mg/kg.
In the case of `CCOCC1(CCc2cccs2)CCN(Cc2cccnc2)C1` (stereo not shown) [Compound 251, 3-((3-(ethoxymethyl)-3-(2-(thiophen-2-yl)ethyl)pyrrolidin-1-yl)methyl)pyridine], the ED50 is reported as under 10 mg/kg.
Work on `CCOCC1(CCc2ccsc2)CCN(Cc2cccnc2)C1` (stereo not shown) [Compound 252] yielded an ED50 of under 10 mg/kg.
For `CCOCC1(CCc2ccsc2)CCN(Cc2cnc(C)s2)C1` (stereo not drawn) [Compound 253, 5-((3-(ethoxymethyl)-3-(2-(thiophen-3-yl)ethyl)pyrrolidin-l-yl)methyl)-2-methylthiazole], the ED50 was over 10 mg/kg.
`CCOCC1(CCc2cccs2)CCN(Cc2cnc(C)s2)CC1` [Compound 254] was tested, and the ED50 was over 10 mg/kg.
With `CCOCC1(CCc2ccsc2)CCN(Cc2cnc(C)s2)CC1` [Compound 255, 5-((4-(ethoxymethyl)-4-(2-(thiophen-3-yl)ethyl)piperidin-1-yl)methyl)-2-methylthiazole] the ED50 was over 10 mg/kg.
